The record followed here is patent EP2712863B1, “Novel inhibitors of bacterial biofilms and related methods” (Sequoia Sciences, Inc., priority 2012, dated 2014).

SMILES strings stand for the structures. Converted amounts (≈) assume the structure as drawn. Read-outs that look alike come from different tables or passages of the source.

One assay has as its system P. aeruginosa. Put plainly: Biofilm growth assay (spreading biofilm on semi-solid agar). It is filed as cell-based. Conditions: for IC85: Pseudomonas aeruginosa.
The subject of a further assay is E. coli. Described as above. It is filed as cell-based. As to conditions: for IC85: Escherichia coli. In short, it runs like this: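 Spreading (swarming) biofilm on semi-solid agar: E. coli on LB with 0.6% agar and 0.5% glucose; P. aeruginosa on M8 agar with 0.2% glucose, 100 µM CaCl2, 1 mM MgSO4, 0.5% Casamino acids. Compound in medium; 5 µL overnight culture spotted centrally, 37°C overnight. Value: concentration (µg/ml) giving ≥85% reduction in spread area versus negative control.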

Setting [1] is: Table 3, concentration that reduces the area of the spreading biofilm by >= 85%, read-out: P. aeruginosa.
Where [2] appears, read: Table 3, concentration that reduces the area of the spreading biofilm by >= 85%, read-out: E. coli.
The mark [3] stands for this setting: Table 4, concentration that reduces the area of the spreading biofilm by >= 85%, read-out: P. aeruginosa.
Where [4] appears, read: Table 4, concentration that reduces the area of the spreading biofilm by >= 85%, read-out: E. coli.
Where [5] appears, read: Table 4, concentration that reduces the area of the spreading biofilm by >= 85%.

Consider `CC1(C)CC[C@]2(C(=O)O)CC[C@]3(C)C(=C(c4ccc(N5CCC(N)CC5)nc4)CC4[C@@]5(C)Cc6c(n[nH]c6N)C(C)(C)C5CC[C@]43C)C2C1` (stereo partly drawn) [Compound 57, (4aS,6aS,6bR,13aR)-12-Amino-15-(6-(4-aminopiperidin-1-yl)pyridin-3-yl)-2,2,6a,6b,9,9,13a-heptamethyl-2,3,4,4a,5,6,6a,6b,7,8,8a,9,11,13,13a,13b,14,15b-octadecahydro-1H-chryseno[1,2-f]indazole-4a-carboxylic acid], for which the IC85 is greater than 2 µg/mL in the assay on P. aeruginosa (setting [1]) and 1 µg/mL (≈ 1.49 µM) in the assay with E. coli (setting [2]).
For `CC1(C)CC[C@]2(C(=O)O)CC[C@]3(C)C(=C(c4ccc(N5CCC(N)C5)nc4)CC4[C@@]5(C)Cc6c(n[nH]c6N)C(C)(C)C5CC[C@]43C)C2C1` (stereo partly drawn) [Compound 58, (4aS,6aS,6bR,13aR)-12-Amino-15-(6-(3-aminopyrrolidin-1-yl)pyridin-3-yl)-2,2,6a,6b,9,9,13a-heptamethyl-2,3,4,4a,5,6,6a,6b,7,8,8a,9,11,13,13a,13b,14,15b-octadecahydro-1H-chryseno[1,2-f]indazole-4a-carboxylic acid], the IC85 was 1 µg/mL (≈ 1.53 µM) in the assay on P. aeruginosa (setting [1]) and 2 µg/mL (≈ 3.05 µM) in the assay on E. coli (setting [2]).
The corresponding values for `CC1(C)CC[C@]2(C(=O)O)CC[C@]3(C)C(=C(c4ccccc4CN4CCOCC4)CC4[C@@]5(C)Cc6c(n[nH]c6N)C(C)(C)[C@@H]5CC[C@]43C)[C@@H]2C1` (stereo partly drawn) [Compound 59, (4aS,6aS,6bR,8aR,13aR,15bS)-12-Amino-2,2,6a,6b,9,9,13a-heptamethyl-15-(2-(morpholinomethyl)phenyl)-2,3,4,4a,5,6,6a,6b,7,8,8a,9,11,13,13a,13b,14,15b-octadecahydro-1H-chryseno[1,2-f]indazole-4a-carboxylic acid] are 0.5 µg/mL (≈ 0.747 µM) and greater than 1 µg/mL.
Regarding `CC1(C)CC[C@]2(c3cc(N)[nH]n3)CC[C@]3(C)C(=CCC4[C@@]5(C)Cc6c(n[nH]c6N)C(C)(C)C5CC[C@]43C)C2C1` (stereo partly drawn) [Compound 60, (4aS,6aS,6bR,13aR)-4a-(5-Amino-1 H-pyrazol-3-yl)-2,2,6a,6b,9,9,13a-heptamethyl-2,3,4,4a,5,6,6a,6b,7,8,8a,9,11,13,13a,13b,14,15b-octadecahydro-1H-chryseno[1,2-f]indazol-12-amine], the results for the IC85 in the assay on P. aeruginosa (setting [3]) and with E. coli (setting [4]) were 0.5 µg/mL (≈ 0.942 µM) and 1 µg/mL (≈ 1.88 µM), respectively.
For `CC1(C)CC[C@]2(C(=O)Nc3nnn[nH]3)CC[C@]3(C)C(=CCC4[C@@]5(C)Cc6c(n[nH]c6N)C(C)(C)C5CC[C@]43C)C2C1` (stereo partly drawn) [Compound 61, (4aS,6aS,6bR,13aR)-12-Amino-2,2,6a,6b,9,9,13a-heptamethyl-N-(1H-tetrazol-5-yl)-2,3,4,4a,5,6,6a,6b,7,8,8a,9,11,13,13a,13b,14,15b-octadecahydro-1H-chryseno[1,2-f]indazole-4a-carboxamide], the IC85 with P. aeruginosa (read-out: P. aeruginosa (µg/ml)) and with E. coli (read-out: E. coli (µg/ml)) was 0.5 µg/mL (≈ 0.892 µM) throughout.
Consider `CC1(C)CC[C@]2(CN)CC[C@]3(C)C(=CCC4[C@@]5(C)Cc6c(n[nH]c6N)C(C)(C)C5CC[C@]43C)C2C1` (stereo partly drawn) [Compound 63, (4aS,6aS,6bR,13aR)-4a-(Aminomethyl)-2,2,6a,6b,9,9,13a-heptamethyl-2,3,4,4a,5,6,6a,6b,7,8,8a,9,11,13,13a,13b,14,15b-octadecahydro-1H-chryseno[1,2-f]indazol-12-amine], for which the IC85 is 4 µg/mL (≈ 8.35 µM) in the assay on P. aeruginosa (setting [3]) and 1 µg/mL (≈ 2.09 µM) in the assay on E. coli (setting [4]).
The corresponding values for `CC1(C)CC[C@]2(C(=O)NO)CC[C@]3(C)C(=CCC4[C@@]5(C)Cc6c(n[nH]c6N)C(C)(C)C5CC[C@]43C)C2C1` (stereo partly drawn) [Compound 65, (4aS,6aS,6bR,13aR)-12-Amino-N-hydroxy-2,2,6a,6b,9,9,13a-heptamethyl-2,3,4,4a,5,6,6a,6b,7,8,8a,9,11,13,13a,13b,14,15b-octadecahydro-1H-chryseno[1,2-f]indazole-4a-carboxamide] are 0.25 µg/mL (≈ 0.491 µM) and 0.25 µg/mL (≈ 0.491 µM).
The corresponding values for `CC1(C)CC[C@]2(C(=O)Nc3cc(O)[nH]n3)CC[C@]3(C)C(=CCC4[C@@]5(C)Cc6c(n[nH]c6N)C(C)(C)C5CC[C@]43C)C2C1` (stereo partly drawn) [Compound 66, (4aS,6aS,6bR,13aR)-12-Amino-N-(5-hydroxy-1H-pyrazol-3-yl)-2,2,6a,6b,9,9,13a-heptamethyl-2,3,4,4a,5,6,6a,6b,7,8,8a,9,11,13,13a,13b, 14,15b-octadecahydro-1H-chryseno[1,2-f]indazole-4a-carboxamide] are 0.25 µg/mL (≈ 0.435 µM) and 1 µg/mL (≈ 1.74 µM).
As for `CC1(C)CC[C@]2(c3nnco3)CC[C@]3(C)C(=CCC4[C@@]5(C)Cc6c(n[nH]c6N)C(C)(C)C5CC[C@]43C)C2C1` (stereo partly drawn) [Compound 67, (4aS,6aS,6bR,13aR)-2,2,6a,6b,9,9,13a-Heptamethyl-4a-(1,3,4-oxadiazol-2-yl)-2,3,4,4a,5,6,6a,6b,7,8,8a,9,11,13,13a,13b,14,15b-octadecahydro-1H-chryseno[1,2-]indazol-12-amine], the “P. aeruginosa” value in the assay on P. aeruginosa (setting [5]) stood at 1 µg/mL. Besides, the “E. coli” value with E. coli (setting [5]) is 2 µg/mL.
Turning to `CC1(C)CC[C@]2(C(=O)Nc3cc(N)n[nH]3)CC[C@]3(C)C(=CCC4[C@@]5(C)Cc6c(n[nH]c6N)C(C)(C)C5CC[C@]43C)C2C1` (stereo partly drawn) [Compound 69, (4aS,6aS,6bR,13aR)-12-amino-N-(3-amino-1H-pyrazol-5-yl)-2,2,6a,6b,9,9,13a-heptamethyl-2,3,4,4a,5,6,6a,6b,7,8,8a,9,11,13,13a,13b,14,15b-octadecahydro-1H-chryseno[1,2-f]indazole-4a-carboxamide], the IC85 with P. aeruginosa (setting [3]) and in the assay with E. coli (setting [4]) was 1 µg/mL (≈ 1.74 µM) throughout.
Consider `CC1(C)CC[C@]2(C(=O)Sc3nnc(N)[nH]3)CC[C@]3(C)C(=CCC4[C@@]5(C)Cc6c(n[nH]c6N)C(C)(C)C5CC[C@]43C)C2C1` (stereo partly drawn) [Compound 70, (4aS,6aS,6bR,13aR)-S-5-Amino-4H-1,2,4-triazol-3-yl 12-amino-2,2,6a,6b,9,9,13a-heptamethyl-2,3,4,4a,5,6,6a,6b,7,8,8a,9,11,13,13a,13b,14,15b-octadecahydro-1H-chryseno[1,2-f]indazole-4a-carbothioate], for which the results for the IC85 with P. aeruginosa (setting [3]) and in the assay on E. coli (setting [4]) were 0.5 µg/mL (≈ 0.845 µM) and 2 µg/mL (≈ 3.38 µM), respectively.
For `CC1(C)CC[C@]2(C(=O)Nc3nnc(N)s3)CC[C@]3(C)C(=CCC4[C@@]5(C)Cc6c(n[nH]c6N)C(C)(C)C5CC[C@]43C)C2C1` (stereo partly drawn) [Compound 71, (4aS,6aS,6bR,13aR)-12-Amino-N-(5-amino-1,3,4-thiadiazol-2-yl)-2,2,6a,6b,9,9,13a-heptamethyl-2,3,4,4a,5,6,6a,6b,7,8,8a,9,11,13,13a,13b,14,15b-octadecahydro-1H-chryseno[1,2-f]indazole-4a-carboxamide], the IC85 stood at 0.5 µg/mL (≈ 0.845 µM) in the assay on P. aeruginosa (setting [3]) and 2 µg/mL (≈ 3.38 µM) in the assay on E. coli (setting [4]).
In the case of `Cn1nc([C@]23CCC(C)(C)C[C@H]2C2=CCC4[C@@]5(C)Cc6c(n[nH]c6N)C(C)(C)[C@@H]5CC[C@@]4(C)[C@]2(C)CC3)cc1N` (stereo partly drawn) [Compound 72, (4aS,6aS,6bR,8aR,13aR,15bS)-4a-(5-Amino-1-methyl-1H-pyrazol-3-yl)-2,2,6a,6b,9,9,13a-heptamethyl-2,3,4,4a,5,6,6a,6b,7,8,8a,9,11,13,13a,13b,14,15b-octadecahydro-1H-chryseno[1,2-f]indazol-12-amine], the IC85 in the assay on P. aeruginosa (setting [3]) is 1 µg/mL (≈ 1.84 µM); with E. coli (setting [4]) it was greater than 2 µg/mL.
For the compound `CC1(C)CC[C@]2(C(=O)n3ccnc3N)CC[C@]3(C)C(=CCC4[C@@]5(C)Cc6c(n[nH]c6N)C(C)(C)C5CC[C@]43C)C2C1` (stereo partly drawn) [Compound 73, (2-Amino-1H-imidazol-1-yl)((4aS,6aS,6bR,13aR)-12-amino-2,2,6a,6b,9,9,13a-heptamethyl-2,3,4,4a,5,6,6a,6b,7,8,8a,9,11,13,13a,13b,14,15b-octadecahydro-1H-chryseno[1,2-f]indazol-4a-yl)methanone], the IC85 with P. aeruginosa (setting [3]) and with E. coli (setting [4]) was 1 µg/mL (≈ 1.79 µM) in each case.
